Like-named read-outs stand apart in the source and are kept apart here.
What was measured:
Test in all cases: SelectScreen Kinase Profiling, single point inhibition and IC50 for off-target kinases
Type in all cases: biochemical
off-target kinases [1] = target: T1, off-target kinases (Homo sapiens, UniProt P21709); conditions: EPHA1, ZLYTE, ATP Km app
T1 sequence (P21709 26-976): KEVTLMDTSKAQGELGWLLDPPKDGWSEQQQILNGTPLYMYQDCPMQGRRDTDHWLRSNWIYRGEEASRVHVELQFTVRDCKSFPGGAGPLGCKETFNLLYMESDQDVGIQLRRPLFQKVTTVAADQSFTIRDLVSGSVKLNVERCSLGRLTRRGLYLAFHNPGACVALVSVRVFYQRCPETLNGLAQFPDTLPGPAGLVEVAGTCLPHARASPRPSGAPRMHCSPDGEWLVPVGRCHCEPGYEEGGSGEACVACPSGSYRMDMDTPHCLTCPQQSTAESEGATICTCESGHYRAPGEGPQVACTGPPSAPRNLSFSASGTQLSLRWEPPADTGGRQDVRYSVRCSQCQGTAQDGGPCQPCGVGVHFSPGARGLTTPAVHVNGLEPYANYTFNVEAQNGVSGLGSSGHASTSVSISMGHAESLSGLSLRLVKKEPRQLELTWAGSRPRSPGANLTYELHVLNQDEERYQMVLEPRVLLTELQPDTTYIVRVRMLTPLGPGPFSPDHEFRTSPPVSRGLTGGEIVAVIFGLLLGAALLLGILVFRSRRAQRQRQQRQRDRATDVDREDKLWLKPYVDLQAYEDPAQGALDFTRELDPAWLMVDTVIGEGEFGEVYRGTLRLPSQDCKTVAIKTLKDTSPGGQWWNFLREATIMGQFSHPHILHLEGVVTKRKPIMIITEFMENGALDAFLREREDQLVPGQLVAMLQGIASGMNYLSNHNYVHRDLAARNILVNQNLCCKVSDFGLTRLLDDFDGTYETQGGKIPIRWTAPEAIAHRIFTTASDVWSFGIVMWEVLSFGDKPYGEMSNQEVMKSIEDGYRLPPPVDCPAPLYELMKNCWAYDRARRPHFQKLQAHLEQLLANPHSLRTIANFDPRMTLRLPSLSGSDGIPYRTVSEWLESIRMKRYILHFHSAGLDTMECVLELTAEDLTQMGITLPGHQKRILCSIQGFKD

off-target kinases [2] = target: T2, off-target kinases (Homo sapiens, UniProt P51817); conditions: PRKX, ZLYTE, ATP Km app
T2 sequence (P51817 1-358): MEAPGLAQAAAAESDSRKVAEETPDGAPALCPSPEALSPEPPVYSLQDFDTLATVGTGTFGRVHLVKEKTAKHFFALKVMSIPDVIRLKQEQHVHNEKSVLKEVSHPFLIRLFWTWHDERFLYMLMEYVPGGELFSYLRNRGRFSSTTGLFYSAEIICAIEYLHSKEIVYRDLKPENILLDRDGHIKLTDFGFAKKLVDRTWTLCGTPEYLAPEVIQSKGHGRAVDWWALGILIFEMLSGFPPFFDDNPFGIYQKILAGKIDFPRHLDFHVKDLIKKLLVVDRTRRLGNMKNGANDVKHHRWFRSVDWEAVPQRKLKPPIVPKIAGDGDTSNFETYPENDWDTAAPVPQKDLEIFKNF

off-target kinases [3] = target: off-target kinases (Homo sapiens, UniProt Q16816); conditions: PHKG1, ZLYTE, ATP Km app
off-target kinases [4] = target: off-target kinases (Homo sapiens, UniProt Q9Y6M4); conditions: CSNK1G3 (CK1 gamma 3), ZLYTE, ATP Km app
off-target kinases (Homo sapiens, UniProt Q9Y6M4), sequence (Q9Y6M4 whole entry): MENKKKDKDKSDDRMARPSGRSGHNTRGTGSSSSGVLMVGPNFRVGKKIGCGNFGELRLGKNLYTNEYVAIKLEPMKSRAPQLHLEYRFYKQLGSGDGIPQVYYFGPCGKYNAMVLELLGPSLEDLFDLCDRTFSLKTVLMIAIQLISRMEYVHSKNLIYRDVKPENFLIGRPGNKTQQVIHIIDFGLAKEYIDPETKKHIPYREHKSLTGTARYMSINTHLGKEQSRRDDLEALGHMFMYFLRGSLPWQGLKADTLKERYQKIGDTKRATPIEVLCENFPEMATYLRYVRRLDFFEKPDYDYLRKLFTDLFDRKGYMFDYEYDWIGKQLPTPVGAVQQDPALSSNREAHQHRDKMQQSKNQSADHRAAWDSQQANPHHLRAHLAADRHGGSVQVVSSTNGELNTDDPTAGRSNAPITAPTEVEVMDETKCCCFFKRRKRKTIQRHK

off-target kinases (Homo sapiens, UniProt Q16816), sequence (Q16816 whole entry): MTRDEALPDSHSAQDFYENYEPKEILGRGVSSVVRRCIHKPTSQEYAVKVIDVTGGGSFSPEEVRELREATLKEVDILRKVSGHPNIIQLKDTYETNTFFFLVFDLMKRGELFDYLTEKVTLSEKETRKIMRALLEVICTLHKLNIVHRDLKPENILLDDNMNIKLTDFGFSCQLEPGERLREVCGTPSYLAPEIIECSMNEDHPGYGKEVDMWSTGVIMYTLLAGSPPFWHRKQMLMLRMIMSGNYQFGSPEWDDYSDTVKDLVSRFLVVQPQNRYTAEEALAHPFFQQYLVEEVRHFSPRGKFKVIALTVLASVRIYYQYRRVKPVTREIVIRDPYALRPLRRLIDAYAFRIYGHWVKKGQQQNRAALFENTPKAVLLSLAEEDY

N#Cc1cc(-c2ncnc(Nc3ccc(N4CCN(C5COC5)CC4)cc3)n2)ccc1OC1CCOCC1 [Compound 1, 5-(4-((4-(4-(oxetan-3-yl)piperazin-1-yl)phenyl)amino)-1,3,5-triazin-2-yl)-2-((tetrahydro-2H-pyran-4-yl)oxy)benzonitrile]
inhibition (off-target kinases [1]; read-out: % Inhibition 1): 29%
inhibition (off-target kinases [1]; read-out: % Inhibition 2): 24%
inhibition (off-target kinases [1]; read-out: % Inhibition Avg): 27%
inhibition (off-target kinases [2]; read-out: % Inhibition 1): 22%
inhibition (off-target kinases [2]; read-out: % Inhibition 2): 30%
inhibition (off-target kinases [2]; read-out: % Inhibition Avg): 26%
inhibition (off-target kinases [3]; read-out: % Inhibition 1): 39%
inhibition (off-target kinases [3]; read-out: % Inhibition 2): 37%
inhibition (off-target kinases [3]; read-out: % Inhibition Avg): 38%
inhibition (off-target kinases [4]; read-out: % Inhibition 1): 4%
inhibition (off-target kinases [4]; read-out: % Inhibition 2): -2%
inhibition (off-target kinases [4]; read-out: % Inhibition Avg): 1%

Reference: US11572590B2, “Methods for evaluating tumor cell spheroids using 3D microfluidic cell culture device” (Dana-Farber Cancer Institute, Inc., priority 2017, dated 2023)
